The source of these data is ChEMBL document CHEMBL1132687, “Synthesis and enantiopharmacology of new AMPA-kainate receptor agonists” (J Med Chem, 1999).

In general, EC50 refers to the concentration needed to bring the measured effect to its halfway point. A low value points to higher potency in that assay. Broadly, the IC50 is the concentration that inhibits the measured activity by half. Low readings indicate greater potency, high ones weaker potency.

The source made the active and inactive calls. The calls are words filed in the database; no cut-off is given here.

The test system of data set [1] is CHO. Nature of the data set: Affinity at Metabotropic glutamate receptor (Glu1-alpha,Glu2,Glu4a) expressed in CHO cells; Not significant activity up to 1 mM concentration. Format: cell-based.
The species entered for data set [2] is Rattus norvegicus. Nature of the data set: Electropharmacology on rat cortical slice preparation for EAA-evoked depolarizations; Depolarization evoked by the compound is antagonised by 10 uM of CPP. Format: functional.
A short description of data set [3]: physchem. The conditions noted are these: water.
A short description of data set [4]: physchem. The conditions noted are these: water. This is another data set of the same source.
A short description of data set [5]: physchem. The note with it: water. This is another data set of the same source.
Description: The dissociation constant at omega-carboxyl or hydroxyl group in water at 20 degree Centigrade.
The species named for data set [6] is Rattus norvegicus. Put plainly: Electropharmacology on rat cortical slice preparation for EAA-evoked depolarizations;Depolarization evoked by the compound is fully antagonised by 5 uM of NBQX. Format: functional.
The nature of data set [7]: The dissociation constant at alpha-carboxyl group in water at 20 degree Centigrade. (evaluated by Uyeno., Y et. al.). The data set is classed as ADME. The note with it: read-out: pKa1.
The nature of data set [8]: The dissociation constant at omega-carboxyl or hydroxyl group iin water at 20 degree Centigrade. (evaluated by Uyeno., Y et. al.). The note with it: read-out: pKa2. The data set is classed as ADME.
Data set [9] can be described thus: The dissociation constant at ammonium group in water at 20 degree Centigrade. (evaluated by Uyeno., Y et. al.). The data set is classed as ADME. The note with it: read-out: pKa3.
Data set [10] addresses Glutamate receptor ionotropic, kainate. Put plainly: Binding affinity against Ionotropic glutamate receptor kainate using [3H]KAIN as radioligand. Format: protein-complex assay.
Data set [11] is filed under the species Rattus norvegicus. Put plainly: Electropharmacology on rat cortical slice preparation for EAA-evoked depolarizations;. The data set is classed as functional.
Data set [12] concerns the target Glutamate NMDA receptor. Nature of the data set: Binding affinity against N-methyl-D-aspartate glutamate receptor using [3H]-CPP as radioligand. Format: protein-complex assay.
Data set [13] concerns the target Glutamate receptor ionotropic, AMPA (Rattus norvegicus, UniProt P19490+P19491+P19492+P19493).
Description: Binding affinity against Ionotropic glutamate receptor AMPA using [3H]AMPA as radioligand.
The species named for data set [14] is Rattus norvegicus. Put plainly: Electropharmacology on rat cortical slice preparation for EAA-evoked depolarizations; Depolarization evoked by the compound is fully antagonised by 5 uM of NBQX. The data set is classed as functional.
Data set [15] is described as follows: The dissociation constant at ammonium group in water at 20 degree Centigrade. The note with it: read-out: pKa3. Format: ADME.
The species named for data set [16] is Rattus norvegicus. Nature of the data set: Electropharmacology on rat cortical slice preparation for EAA-evoked depolarizations; Depolarization evoked by the compound is partially antagonised by 5 uM of NBQX and fully antagonised by 20 uM of NBQX. The data set is classed as functional.
The species entered for data set [17] is Rattus norvegicus. Nature of the data set: Electropharmacology on rat cortical slice preparation for EAA-evoked depolarizations;Depolarization evoked by the compound is partially antagonised by 5 uM of NBQX and fully antagonised by 20 uM of NBQX. The data set is classed as functional.
For data set [18], the species on record is Rattus norvegicus. Put plainly: Electropharmacology on rat cortical slice preparation for EAA-evoked depolarizations; Depolarization evoked by the compound is not antagonised by 5 uM of NBQX but fully antagonised by 20 uM of NBQX. Format: functional.

With `O=C(O)C1=NO[C@H]2CN[C@H](C(=O)O)[C@@H]12` (stereo in doubt; (+)-6) [listing 1 of 2 here], the result in data set [1] was inactive.

For `CN[C@H](CC(=O)O)C(=O)O` [N-METHYL-D-ASPARTIC ACID (NMDA)], the EC50 in data set [2] was found to be 11 µM.

Take `O=C(O)C1=NO[C@H]2[C@@H]1CN[C@@H]2C(=O)O` (racemic) [listing 1 of 2 here]: the pKa was 7.3 in data set [3], below 2 in [4] and 2.6 in data set [5]. Further, the EC50 in data set [6] amounted to 284 µM.

As to `N[C@@H](CCC(=O)O)C(=O)O` [GLUTAMIC ACID], the results for the pKa in [7], in data set [8] and in [9] were 2.39, 4.21 and 9.54, respectively.

As to `O=C(O)C1=NO[C@H]2[C@@H]1CN[C@@H]2C(=O)O` (stereo in doubt; (-)-7) [listing 1 of 2 here], the IC50 in data set [10], in data set [12] and in data set [13] was above 100 µM in each case. In data set [11], the EC50 was above 1000 µM.

As to `O=C1NO[C@H]2CN[C@H](C(=O)O)[C@@H]12` (racemic), the response in data set [2] was half-maximal at 1000 µM (EC50). In addition, the values for the IC50 in [10], in [12] and in data set [13] were 7.9 µM, above 100 µM and 42.6 µM, respectively. Besides, the result in data set [1] was inactive.

As to `O=C(O)C1=NO[C@H]2[C@@H]1CN[C@@H]2C(=O)O` (stereo in doubt; (+)-7) [listing 1 of 2 here], the IC50 in data set [10] was 67 µM; in data set [13], 11.2 µM. Further, in data set [14], the EC50 worked out at 251 µM.

In data set [2], `O=C1NO[C@H]2[C@@H]1CN[C@@H]2C(=O)O` (racemic) yielded an EC50 of 1000 µM. The IC50 in [10] was 45.3 µM; in data set [12] it was above 100 µM; in data set [13] it was 34.9 µM. The pKa in data set [3] was found to be 8.3; in data set [4], 2; in data set [5] it was 5.1. Also, in [1], the outcome was inactive.

As to `O=C(O)C1=NO[C@H]2CN[C@H](C(=O)O)[C@@H]12` (racemic) [listing 1 of 2 here], the pKa in data set [4] is below 2; in data set [15], 7.4; in [5], 2.15. The compound further displayed an EC50 in [16] of 5.4 µM.

`O=C(O)C1=NO[C@H]2[C@@H]1CN[C@@H]2C(=O)O` (stereo in doubt; (-)-7) [listing 2 of 2 here]: the outcome in data set [1] was inactive.

Turning to `O=C(O)C1=NO[C@H]2CN[C@H](C(=O)O)[C@@H]12` (stereo in doubt; (-)-6) [listing 1 of 2 here], the result in data set [1] was inactive.

`O=C(O)C1=NO[C@H]2CN[C@H](C(=O)O)[C@@H]12` (stereo in doubt; (+)-6) [listing 2 of 2 here]: the IC50 in data set [10] and in [13] was above 100 µM throughout. Besides, the EC50 in data set [11] was above 1000 µM.

As to `O=C(O)C1=NO[C@H]2CN[C@H](C(=O)O)[C@@H]12` (stereo in doubt; (-)-6) [listing 2 of 2 here], the IC50 amounted to 0.23 µM in [10] and 0.54 µM in data set [13]. Besides, the EC50 in data set [17] was determined as 3.5 µM.

On to `O=C(O)C1=NO[C@H]2[C@@H]1CN[C@@H]2C(=O)O` (racemic) [listing 2 of 2 here], for which the outcome in data set [1] was inactive.

`O=C(O)C1=NO[C@H]2CN[C@H](C(=O)O)[C@@H]12` (racemic) [listing 2 of 2 here]: the result in data set [1] was inactive.

On to `O=C(O)C1=NO[C@H]2[C@@H]1CN[C@@H]2C(=O)O` (stereo in doubt; (+)-7) [listing 2 of 2 here], for which, in [1], the outcome was inactive.

In the case of `C=C(C)[C@H]1CN[C@H](C(=O)O)[C@H]1CC(=O)O` [KAINIC ACID], the EC50 in data set [18] came out at 25 µM.
